Our source for the Fluorescence values is ChEMBL document CHEMBL1134045, “Inhibition of BCRP-mediated drug efflux by fumitremorgin-type indolyl diketopiperazines” (Bioorg Med Chem Lett, 2001).

In one series the test system is T6400. The experiment in a line: Relative cellular accumulation of mitoxantrone determined with the compound at 2.5 uM and mitoxantrone at 10 uM on T6400 mouse cell line. The format is functional.
The test system of a further series is AIK-T8. The experiment in a line: Ability to inhibit […] activity at 2.5 uM and 200 ng/ml PSC833 in a mitoxantrone accumulation assay on T8 human cell line. The format is ADME, cell-based. Particulars: aik-t8, 2.5 µM.

As to `CCCCCC1c2[nH]c3ccccc3c2C[C@H]2C(=O)NC(Cc3ccccc3)C(=O)N12` (stereo partly drawn), the Fluorescence with T6400 worked out at 199%; in the series on AIK-T8 it was 514%.
In the same order, the values of `CCCCCC1c2[nH]c3ccccc3c2C[C@H]2C(=O)NC(N3CCCC3)C(=O)N12` (stereo partly drawn) are 119% and 370%.
The like results for `CC(C)C1c2[nH]c3ccccc3c2C[C@H]2C(=O)NC(CCCCNC(=O)OC(C)(C)C)C(=O)N12` (stereo partly drawn) were, in that order, 133% and 452%.
In the same order, the values of `CCCCCC1c2[nH]c3ccccc3c2C[C@H]2C(=O)NC(C)C(=O)N12` (stereo partly drawn) are 175% and 436%.
Regarding `CC(C)CC1c2[nH]c3ccccc3c2C[C@H]2C(=O)NC(COC(C)(C)C)C(=O)N12` (stereo partly drawn), the Fluorescence in the series with T6400 turned out to be 216%; in the series with AIK-T8 it was 522%.
In the same order, the values of `CC(C)C1c2[nH]c3ccccc3c2C[C@H]2C(=O)NC(Cc3ccccc3)C(=O)N12` (stereo partly drawn) are 104% and 359%.
The like results for `O=C1NC(N2CCCC2)C(=O)N2C(c3ccccc3)c3[nH]c4ccccc4c3C[C@@H]12` (stereo partly drawn) were, in that order, 54% and 176%.
In the same order, the values of `CCCCCC1c2[nH]c3ccccc3c2C[C@H]2C(=O)NC(Cc3c[nH]c4ccccc34)C(=O)N12` (stereo partly drawn) are 242% and 601%.
On to `CC(C)CC1c2[nH]c3ccccc3c2C[C@H]2C(=O)NC(Cc3ccccc3)C(=O)N12` (stereo partly drawn), for which the Fluorescence with T6400 came out at 191%; with AIK-T8 it was 431%.
The like results for `CC(C)C1c2[nH]c3ccccc3c2C[C@H]2C(=O)NC(CCC(=O)OC(C)(C)C)C(=O)N12` (stereo partly drawn) were, in that order, 149% and 381%.
The like results for `CC(C)(C)OC(=O)NCCCCC1NC(=O)[C@@H]2Cc3c([nH]c4ccccc34)C(C3CCCCC3)N2C1=O` (stereo partly drawn) were, in that order, 278% and 629%.
In the same order, the values of `O=C1NC(Cc2c[nH]c3ccccc23)C(=O)N2C(C3CCCCC3)c3[nH]c4ccccc4c3C[C@@H]12` (stereo partly drawn) are 158% and 410%.
Consider `CCC1c2[nH]c3ccccc3c2C[C@H]2C(=O)NC(N3CCCC3)C(=O)N12` (stereo partly drawn), for which the Fluorescence in the series on T6400 is 42%; in the series with AIK-T8, 119%.
In the same order, the values of `CCCCCC1c2[nH]c3ccccc3c2C[C@H]2C(=O)NC(CCCCNC(=O)OC(C)(C)C)C(=O)N12` (stereo partly drawn) are 302% and 599%.
For `CC(C)CC1c2[nH]c3ccccc3c2C[C@H]2C(=O)NC(CCC(=O)OC(C)(C)C)C(=O)N12` (stereo partly drawn), the figures for the Fluorescence in the series on T6400 and with AIK-T8 were 348% and 711%, respectively.
In the same order, the values of `CC(C)CC1c2[nH]c3ccccc3c2C[C@H]2C(=O)NC(N3CCCC3)C(=O)N12` (stereo partly drawn) are 56% and 187%.
The like results for `CC(C)(C)OC(=O)CCC1NC(=O)[C@@H]2Cc3c([nH]c4ccccc34)C(c3ccccc3)N2C1=O` (stereo partly drawn) were, in that order, 100% and 313%.
The like results for `CC(C)(C)OCC1NC(=O)[C@@H]2Cc3c([nH]c4ccccc34)C(c3ccccc3)N2C1=O` (stereo partly drawn) were, in that order, 106% and 339%.
For `CCC1c2[nH]c3ccccc3c2C[C@H]2C(=O)NC(C)C(=O)N12` (stereo partly drawn), the Fluorescence amounted to 43% in the series on T6400 and 114% in the series on AIK-T8.
In the same order, the values of `CC(C)C1c2[nH]c3ccccc3c2C[C@H]2C(=O)NC(Cc3c[nH]c4ccccc34)C(=O)N12` (stereo partly drawn) are 96% and 310%.
In the same order, the values of `CCC1c2[nH]c3ccccc3c2C[C@H]2C(=O)NC(COC(C)(C)C)C(=O)N12` (stereo partly drawn) are 71% and 225%.
Consider `CC(C)CC1c2[nH]c3ccccc3c2C[C@H]2C(=O)NC(C)C(=O)N12` (stereo partly drawn), for which the Fluorescence with T6400 is 80%; in the series with AIK-T8, 333%.
The like results for `CC(C)C1c2[nH]c3ccccc3c2C[C@H]2C(=O)NC(N3CCCC3)C(=O)N12` (stereo partly drawn) were, in that order, 45% and 136%.
Turning to `O=C1NC(N2CCCC2)C(=O)N2C(C3CCCCC3)c3[nH]c4ccccc4c3C[C@@H]12` (stereo partly drawn), the Fluorescence with T6400 amounted to 85%; with AIK-T8, 313%.
With `CCC1c2[nH]c3ccccc3c2C[C@H]2C(=O)NC(Cc3c[nH]c4ccccc34)C(=O)N12` (stereo partly drawn), the Fluorescence with T6400 was 96%; with AIK-T8 it was 354%.
In the same order, the values of `CCC1c2[nH]c3ccccc3c2C[C@H]2C(=O)NC(CCCCNC(=O)OC(C)(C)C)C(=O)N12` (stereo partly drawn) are 74% and 313%.
The like results for `O=C1NC(Cc2ccccc2)C(=O)N2C(c3ccccc3)c3[nH]c4ccccc4c3C[C@@H]12` (stereo partly drawn) were, in that order, 112% and 376%.
On to `CC1NC(=O)[C@@H]2Cc3c([nH]c4ccccc34)C(C3CCCCC3)N2C1=O` (stereo partly drawn), for which the Fluorescence stood at 74% in the series with T6400 and 268% with AIK-T8.
As for `CCC1c2[nH]c3ccccc3c2C[C@H]2C(=O)NC(Cc3ccccc3)C(=O)N12` (stereo partly drawn), the Fluorescence in the series with T6400 is 63%; with AIK-T8 it was 228%.
For the molecule `CC(C)CC1c2[nH]c3ccccc3c2C[C@H]2C(=O)NC(Cc3c[nH]c4ccccc34)C(=O)N12` (stereo partly drawn), the Fluorescence in the series on T6400 turned out to be 279%; in the series with AIK-T8, 535%.
With `CC(C)C1c2[nH]c3ccccc3c2C[C@H]2C(=O)NC(COC(C)(C)C)C(=O)N12` (stereo partly drawn), the Fluorescence is 93% in the series on T6400 and 334% with AIK-T8.
With `O=C1NC(Cc2ccccc2)C(=O)N2C(C3CCCCC3)c3[nH]c4ccccc4c3C[C@@H]12` (stereo partly drawn), the Fluorescence in the series with T6400 turned out to be 91%.
As to `CC1NC(=O)[C@@H]2Cc3c([nH]c4ccccc34)C(C(C)C)N2C1=O` (stereo partly drawn), the Fluorescence in the series on T6400 came out at 49%; with AIK-T8, 156%.
For `CC(C)(C)OC(=O)NCCCCC1NC(=O)[C@@H]2Cc3c([nH]c4ccccc34)C(c3ccccc3)N2C1=O` (stereo partly drawn), the Fluorescence is 85% with T6400 and 305% in the series on AIK-T8.
In the same order, the values of `CC1NC(=O)[C@@H]2Cc3c([nH]c4ccccc34)C(c3ccccc3)N2C1=O` (stereo partly drawn) are 53% and 181%.
For `CC(C)(C)OCC1NC(=O)[C@@H]2Cc3c([nH]c4ccccc34)C(C3CCCCC3)N2C1=O` (stereo partly drawn), the Fluorescence in the series with T6400 turned out to be 276%; in the series on AIK-T8 it was 672%.
In the same order, the values of `CCCCCC1c2[nH]c3ccccc3c2C[C@H]2C(=O)NC(CCC(=O)OC(C)(C)C)C(=O)N12` (stereo partly drawn) are 283% and 592%.
In the same order, the values of `CCCCCC1c2[nH]c3ccccc3c2C[C@H]2C(=O)NC(COC(C)(C)C)C(=O)N12` (stereo partly drawn) are 275% and 607%.
For the molecule `O=C1NC(Cc2c[nH]c3ccccc23)C(=O)N2C(c3ccccc3)c3[nH]c4ccccc4c3C[C@@H]12` (stereo partly drawn), the figures for the Fluorescence with T6400 and with AIK-T8 were 125% and 376%, respectively.
In the same order, the values of `CCC1c2[nH]c3ccccc3c2C[C@H]2C(=O)NC(CCC(=O)OC(C)(C)C)C(=O)N12` (stereo partly drawn) are 80% and 313%.
The like results for `CC(C)(C)OC(=O)CCC1NC(=O)[C@@H]2Cc3c([nH]c4ccccc34)C(C3CCCCC3)N2C1=O` (stereo partly drawn) were, in that order, 252% and 638%.
In the same order, the values of `CC(C)CC1c2[nH]c3ccccc3c2C[C@H]2C(=O)NC(CCCCNC(=O)OC(C)(C)C)C(=O)N12` (stereo partly drawn) are 305% and 649%.
